Test results as given in patent publication EP4707280A1, “1,4-CINEOLE DERIVATIVE AND INTERMEDIATE THEREOF, HERBICIDE CONTAINING SAID DERIVATIVE AS ACTIVE INGREDIENT, METHOD FOR USING HERBICIDE, AND METHOD FOR PREPARING AGROCHEMICAL COMPOSITION” (HOKKO CHEMICAL INDUSTRY CO., LTD., priority 2023, dated 2024).

Assays:
Assay type in all cases: in vivo
Digitaria ciliaris [1] = assay: Test Example 7: herbicidal effect test by soil application in upland field (low dose); settings: Digitaria ciliaris, 7.5 g per 10 ares, sprayed one day after sowing, 14 days after application, read-out: weed inhibition rate
Summary of the method: (§1)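 Upland soil (alluvial loam) pots, seeds mixed into top 1 cm layer → EC formulation diluted with water, sprayed onto soil 1 d post-sowing, 100 L/10 a → 7.5 g a.i./10 a → inhibition (%) scored at 14 d, n=2.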

Echinochloa crus-galli [2] = assay: as above; settings: Echinochloa crus-galli, 7.5 g per 10 ares, sprayed one day after sowing, 14 days after application, read-out: weed inhibition rate
Summary of the method: as §1

[3] = system: Echinochloa crus-galli var. formosensis; assay: Test Example 5: herbicidal effect test by soil application in paddy rice (low dose); settings: Echinochloa crus-galli, soil, 336 h; 7.5 g per 10 ares; applied immediately after sowing, flooded pots; 14 days after application; read-out: weed inhibition rate
Summary of the method: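 Flooded-paddy soil application at low dose (7.5 g a.i. per 10 ares), given by dropper as diluted emulsifiable concentrate directly after sowing weeds 0–1 cm deep. Effect evaluated after 14 days in duplicate.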

[4] = system: Echinochloa crus-galli var. formosensis; assay: Test Example 1: herbicidal effect test by soil application in paddy rice; settings: Echinochloa crus-galli, soil, 336 h; 120 g active ingredient per 10 ares; applied immediately after sowing, flooded pots; 14 days after application; read-out: weed inhibition rate
Summary of the method: (§2)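 Soil-applied test under flooded paddy conditions (~3 cm water) in a glass greenhouse. Seeds were sown shallow (0–1 cm, 30 per species), then compound was dripped in as diluted emulsifiable concentrate at 120 g a.i./10 a.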

Scirpus juncoides [5] = assay: as above; settings: Schoenoplectiella juncoides, soil, 336 h; 120 g active ingredient per 10 ares; applied immediately after sowing, flooded pots; 14 days after application; read-out: weed inhibition rate
Summary of the method: as §2

Digitaria ciliaris [6] = assay: Test Example 4: herbicidal effect test by stem and leaf treatment in upland field; settings: Digitaria ciliaris; 120 g per 10 ares; sprayed seven days after sowing, upland soil; 14 days after application; read-out: weed inhibition rate
Digitaria ciliaris [7] = assay: Test Example 8: herbicidal effect test by stem and leaf treatment in upland field (low dose); settings: Digitaria ciliaris; 7.5 g per 10 ares; sprayed seven days after sowing, upland soil; 14 days after application; read-out: weed inhibition rate
Echinochloa crus-galli [8] = assay: as above; settings: Echinochloa crus-galli; 7.5 g per 10 ares; sprayed seven days after sowing, upland soil; 14 days after application; read-out: weed inhibition rate
Echinochloa crus-galli [9] = assay: Test Example 4: herbicidal effect test by stem and leaf treatment in upland field; settings: Echinochloa crus-galli; 120 g per 10 ares; sprayed seven days after sowing, upland soil; 14 days after application; read-out: weed inhibition rate
Digitaria ciliaris [10] = assay: Test Example 3: herbicidal effect test by soil application in upland field; settings: Digitaria ciliaris, 120 g per 10 ares, sprayed one day after sowing, 14 days after application, read-out: weed inhibition rate
Summary of the method: (§3)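 Pre-emergence test: seeds mixed into top 1 cm of alluvial loam upland soil in pots; emulsifiable concentrate diluted in water sprayed on soil one day after sowing at 100 L/10 a, 120 g a.i./10 a. Weed inhibition rate (%) scored at 14 days, in duplicate.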

Echinochloa crus-galli [11] = assay: as above; settings: Echinochloa crus-galli, 120 g per 10 ares, sprayed one day after sowing, 14 days after application, read-out: weed inhibition rate
Summary of the method: as §3

[12] = system: Echinochloa crus-galli var. formosensis; assay: Test Example 2: herbicidal effect test by application during growth period of paddy rice; settings: Echinochloa crus-galli; 120 g per 10 ares; applied seven days after sowing, flooded pots; 14 days after application; read-out: weed inhibition rate
Summary of the method: (§4)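 Steps: puddle fertilized paddy soil; sow 30 seeds of each weed at 0–1 cm; flood to roughly 3 cm and keep in a glasshouse; at day 7 drop in diluted emulsifiable concentrate (120 g a.i. per 10 ares); score inhibition (%) 14 days later, two replicates.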

Scirpus juncoides [13] = assay: as above; settings: Schoenoplectiella juncoides; 120 g per 10 ares; applied seven days after sowing, flooded pots; 14 days after application; read-out: weed inhibition rate
Summary of the method: as §4

[14] = system: Echinochloa crus-galli var. formosensis; assay: Test Example 6: herbicidal effect test by application during growth period of paddy rice (low dose); settings: Echinochloa crus-galli; 7.5 g per 10 ares; applied seven days after sowing, flooded pots; 14 days after application; read-out: weed inhibition rate
Summary of the method: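 Paddy soil in flooded Wagner pots (about 3 cm water), weeds sown at 0–1 cm, 30 seeds each, grown in a glass greenhouse. Seven days after sowing, water-diluted emulsifiable concentrate was dropped into the water at 7.5 g active ingredient per 10 ares. Weed inhibition rate (%) was scored 14 days after application, in duplicate.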

COc1ccccc1COC1CC2(C(C)C)OC1(C)CC2I (stereo not drawn) [1-1415, 5-iodo-2-[(2-methoxyphenyl)methoxy]-1-methyl-4-isopropyl-7-oxabicyclo[2.2.1]heptane]
≥ 80%: inhibition at 75 g/ha (Digitaria ciliaris [1]) | inhibition at 75 g/ha (Echinochloa crus-galli [2]) | inhibition at 75 g/ha [3] | pest or weed control at 1200 g/ha [4] | pest or weed control at 1200 g/ha (Scirpus juncoides [5]) | inhibition at 1200 g/ha (Digitaria ciliaris [6]) | inhibition at 75 g/ha (Digitaria ciliaris [7]) | inhibition at 75 g/ha (Echinochloa crus-galli [8]) | inhibition at 1200 g/ha (Echinochloa crus-galli [9]) | inhibition at 1200 g/ha (Digitaria ciliaris [10]) | inhibition at 1200 g/ha (Echinochloa crus-galli [11]) | inhibition at 1200 g/ha [12] | inhibition at 1200 g/ha (Scirpus juncoides [13]) | inhibition at 75 g/ha [14]

CC(C)C12CC(OCc3ccccc3I)C(C)(CC1Cl)O2 (stereo not drawn) [1-1298, 5-chloro-2-[(2-iodophenyl)methoxy]-1-methyl-4-isopropyl-7-oxabicyclo[2.2.1]heptane]
≥ 80%: inhibition at 75 g/ha (Digitaria ciliaris [1]) | inhibition at 75 g/ha (Echinochloa crus-galli [2]) | inhibition at 75 g/ha [3] | pest or weed control at 1200 g/ha [4] | pest or weed control at 1200 g/ha (Scirpus juncoides [5]) | inhibition at 1200 g/ha (Digitaria ciliaris [6]) | inhibition at 75 g/ha (Digitaria ciliaris [7]) | inhibition at 75 g/ha (Echinochloa crus-galli [8]) | inhibition at 1200 g/ha (Echinochloa crus-galli [9]) | inhibition at 1200 g/ha (Digitaria ciliaris [10]) | inhibition at 1200 g/ha (Echinochloa crus-galli [11]) | inhibition at 1200 g/ha [12] | inhibition at 1200 g/ha (Scirpus juncoides [13]) | inhibition at 75 g/ha [14]

CC#CCOC1CC2(C(C)C)OC1(C)CC2I (stereo not drawn) [1-1402, 5-but-2-ynoxy-2-iodo-1-isopropyl-4-methyl-7-oxabicyclo[2.2.1]heptane]
≥ 80%: inhibition at 75 g/ha (Digitaria ciliaris [1]) | inhibition at 75 g/ha (Echinochloa crus-galli [2]) | inhibition at 75 g/ha [3] | pest or weed control at 1200 g/ha [4] | pest or weed control at 1200 g/ha (Scirpus juncoides [5]) | inhibition at 1200 g/ha (Digitaria ciliaris [6]) | inhibition at 75 g/ha (Digitaria ciliaris [7]) | inhibition at 75 g/ha (Echinochloa crus-galli [8]) | inhibition at 1200 g/ha (Echinochloa crus-galli [9]) | inhibition at 1200 g/ha (Digitaria ciliaris [10]) | inhibition at 1200 g/ha (Echinochloa crus-galli [11]) | inhibition at 1200 g/ha [12] | inhibition at 1200 g/ha (Scirpus juncoides [13]) | inhibition at 75 g/ha [14]

CC(C)C12CC(OCc3ccsc3)C(C)(CC1Cl)O2 (stereo not drawn) [1-1324, 2-chloro-1-isopropyl-4-methyl-5-(3-thienylmethoxy)-7-oxabicyclo[2.2.1]heptane]
≥ 80%: inhibition at 75 g/ha (Digitaria ciliaris [1]) | inhibition at 75 g/ha (Echinochloa crus-galli [2]) | inhibition at 75 g/ha [3] | pest or weed control at 1200 g/ha [4] | pest or weed control at 1200 g/ha (Scirpus juncoides [5]) | inhibition at 1200 g/ha (Digitaria ciliaris [6]) | inhibition at 75 g/ha (Digitaria ciliaris [7]) | inhibition at 75 g/ha (Echinochloa crus-galli [8]) | inhibition at 1200 g/ha (Echinochloa crus-galli [9]) | inhibition at 1200 g/ha (Digitaria ciliaris [10]) | inhibition at 1200 g/ha (Echinochloa crus-galli [11]) | inhibition at 1200 g/ha [12] | inhibition at 1200 g/ha (Scirpus juncoides [13]) | inhibition at 75 g/ha [14]

CC(C)C12CC(OCc3c(Cl)cccc3Cl)C(C)(CC1I)O2 (stereo not drawn) [1-1447, 5-[(2,6-dichlorophenyl)methoxy]-2-iodo-1-isopropyl-4-methyl-7-oxabicyclo[2.2.1]heptane]
≥ 80%: inhibition at 75 g/ha (Digitaria ciliaris [1]) | inhibition at 75 g/ha (Echinochloa crus-galli [2]) | inhibition at 75 g/ha [3] | pest or weed control at 1200 g/ha [4] | pest or weed control at 1200 g/ha (Scirpus juncoides [5]) | inhibition at 1200 g/ha (Digitaria ciliaris [6]) | inhibition at 75 g/ha (Digitaria ciliaris [7]) | inhibition at 75 g/ha (Echinochloa crus-galli [8]) | inhibition at 1200 g/ha (Echinochloa crus-galli [9]) | inhibition at 1200 g/ha (Digitaria ciliaris [10]) | inhibition at 1200 g/ha (Echinochloa crus-galli [11]) | inhibition at 1200 g/ha [12] | inhibition at 1200 g/ha (Scirpus juncoides [13]) | inhibition at 75 g/ha [14]

COc1ccccc1CO[C@@H]1C[C@]2(C(C)C)O[C@@]1(C)C[C@@H]2I [1-747, (1R,2S,4S,5R)-2-iodo-1-isopropyl-5-[(2-methoxyphenyl)methoxy]-4-methyl-7-oxabicyclo[2.2.1]heptane]
≥ 80%: inhibition at 75 g/ha (Digitaria ciliaris [1]) | inhibition at 75 g/ha (Echinochloa crus-galli [2]) | inhibition at 75 g/ha [3] | pest or weed control at 1200 g/ha [4] | pest or weed control at 1200 g/ha (Scirpus juncoides [5]) | inhibition at 1200 g/ha (Digitaria ciliaris [6]) | inhibition at 75 g/ha (Digitaria ciliaris [7]) | inhibition at 75 g/ha (Echinochloa crus-galli [8]) | inhibition at 1200 g/ha (Echinochloa crus-galli [9]) | inhibition at 1200 g/ha (Digitaria ciliaris [10]) | inhibition at 1200 g/ha (Echinochloa crus-galli [11]) | inhibition at 1200 g/ha [12] | inhibition at 1200 g/ha (Scirpus juncoides [13]) | inhibition at 75 g/ha [14]
